Test results as given in patent US7700786B2, “Pyrazole derivative, intermediate therefor, processes for producing these, and herbicide containing these as active ingredient” (Sagami Chemical Research Center, priority 2001, dated 2010).

SMILES | melting point [°C]
C=CNC(=S)n1nc(Oc2ncc(C(F)(F)F)cc2Cl)cc1C [Compound 4-41, N-vinyl-3-(3-chloro-5-trifluoromethylpyridin-2-yloxy)-5-methylpyrazole-1-carbothioamide] | 90 to 92
CCc1cc(Oc2ncc(C(F)(F)F)cc2Cl)nn1C(=O)NC | 85 to 87
CC(C)N(C(=O)n1nc(Oc2ccc(C(F)(F)F)cc2[N+](=O)[O-])cc1C(F)(F)F)C(C)C [Example 241, N,N-Diisopropyl-3-(2-nitro-4-trifluoromethylphenyloxy)-5-trifluoromethylpyrazole-1-carboxamide] | 118 to 120
CCc1c(Cl)c(Oc2ncc(C(F)(F)F)cc2Cl)nn1C(=O)NC [Compound 4-89, N-methyl-4-chloro-3-(3-chloro-5-trifluoromethylpyridin-2-yloxy)-5-ethylpyrazole-1-carboxamide] | 88 to 89
Cc1cc(Oc2ccc(N)cc2C(F)(F)F)n[nH]1 [Compound 1-37, 3-(4-amino-2-trifluoromethylphenyloxy)-5-methylpyrazole] | 143 to 145
Cc1cc(Oc2ccc([N+](=O)[O-])c(F)c2)n[nH]1 [Compound 1-26, 3-(3-fluoro-4-nitrophenyloxy)-5-methylpyrazole] | 80 to 83
CCNC(=O)n1nc(Oc2ccc([N+](=O)[O-])c(OCC)c2)cc1C [Example 98, N-ethyl-3-(3-ethoxy-4-nitrophenyloxy)-5-methylpyrazole-1-carboxamide] | 110 to 112
Cc1cc(Oc2ccc([N+](=O)[O-])c(C)c2)n[nH]1 [Compound 1-4, 5-methyl-3-(4-nitro-3-methylphenyloxy)pyrazole] | 114 to 117
CCNC(=O)n1nc(Oc2ncc(C(F)(F)F)cc2Cl)c(CC)c1C [Compound 4-85, N-ethyl-3-(3-chloro-5-trifluoromethylpyridin-2-yloxy)-4-ethyl-5-methylpyrazole-1-carboxamide] | 101 to 102
CNC(=O)n1nc(Oc2ccc([N+](=O)[O-])cc2C(F)(F)F)c(C)c1C | 113 to 115
CCNC(=O)n1nc(Oc2ncc(C(F)(F)F)cc2Cl)c(Br)c1C [Compound 4-78, N-ethyl-4-bromo-3-(3-chloro-5-trifluoromethylpyridin-2-yloxy)-5-methylpyrazole-1-carboxamide] | 123 to 125
Cc1cc(Oc2c(Cl)cc(C(F)(F)F)cc2[N+](=O)[O-])n[nH]1 [Compound 1-21, 3-(2-chloro-6-nitro-4-trifluoromethylphenyloxy)-5-methylpyrazole] | 120 to 123
COCNC(=S)n1nc(Oc2ccc(C#N)cc2C(F)(F)F)cc1C [Example 177, N-methoxymethyl-3-(4-cyano-2-trifluoromethylphenyloxy)-5-methylpyrazole-1-carbothioamide] | 89 to 90
Cc1cc(Oc2ccc([N+](=O)[O-])c(C(F)(F)F)c2)n[nH]1 [Compound 1-42, 5-methyl-3-(4-nitro-3-trifluoromethylphenyloxy)pyrazole] | 96 to 98
Cc1cc(Oc2c(Cl)cc(C(F)(F)F)cc2Cl)n[nH]1 [Compound 1-17, 3-(2,6-dichloro-4-trifluoromethylphenyloxy)-5-methylpyrazole] | 153 to 155
CCNC(=O)n1nc(Oc2cc(OCC)ccc2[N+](=O)[O-])cc1C [Example 99, N-ethyl-3-(5-ethoxy-2-nitrophenyloxy)-5-methylpyrazole-1-carboxamide] | 73 to 75
CCc1c(Oc2ncc(C(F)(F)F)cc2Cl)nn(C(=O)NC)c1C | 84 to 86
CCNC(=O)n1nc(Oc2ncc(Cl)cc2Cl)cc1C [Compound 4-15, N-ethyl-3-(3,5-dichloropyridin-2-yloxy)-5-methylpyrazole-1-carboxamide] | 74 to 76
CCNC(=O)n1nc(Oc2ncc(C(F)(F)F)cc2Cl)cc1C(F)(F)F [Compound 4-93, N-ethyl-3-(3-chloro-5-trifluoromethylpyridin-2-yloxy)-5-trifluoromethylpyrazole-1-carboxamide] | 52 to 54
CCNC(=O)n1nc(Oc2c(Cl)cc(C(F)(F)F)cc2[N+](=O)[O-])cc1C [Example 126, N-ethyl-3-(2-chloro-6-nitro-4-trifluoromethylphenyloxy)-5-methylpyrazole-1-carboxamide] | 98 to 99
Cc1c(Cl)c(Oc2ccc(C(F)(F)F)cc2[N+](=O)[O-])nn1C(=O)NC(C)C [Example 243, N-isopropyl-4-chloro-5-methyl-3-(2-nitro-4-trifluoromethylphenyloxy)pyrazole-1-carboxamide] | 89 to 91
Cc1c(Cl)c(Oc2c(Cl)cc(C(F)(F)F)cc2Cl)nn1C(=O)NCCCl | 141 to 143
Cc1cc(Oc2ccc(C#N)cc2C(F)(F)F)n[nH]1 [Compound 1-30, 3-(4-cyano-2-trifluoromethylphenyloxy)-5-methylpyrazole] | 123 to 125
CCc1cc(Oc2ccc([N+](=O)[O-])cc2C(F)(F)F)nn1C(=O)NC | 97 to 100
CCNC(=O)n1nc(Oc2ncc(C(F)(F)F)cc2Cl)cc1CC [Compound 4-88, N-ethyl-3-(3-chloro-5-trifluoromethylpyridin-2-yloxy)-5-ethylpyrazole-1-carboxamide] | 85 to 86

SMILES | melting point [°C]
CNC(=O)n1nc(Oc2ccc(C(F)(F)F)cc2N)cc1C [Example 242, N-methyl-3-(2-amino-4-trifluoromethylphenyloxy)-5-methylpyrazole-1-carboxamide] | 93 to 94
Cc1cc(Oc2c([N+](=O)[O-])cc([N+](=O)[O-])cc2C(F)(F)F)n[nH]1 | 145 to 147
Cc1cc(Oc2ccccc2C(F)(F)F)nn1C(=O)Nc1ccccc1 | 87 to 89
CCNC(=O)n1nc(Oc2ncc(C(F)(F)F)cc2Cl)c(Cl)c1C [Compound 4-67, N-ethyl-4-chloro-3-(3-chloro-5-trifluoromethylpyridin-2-yloxy)-5-methylpyrazole-1-carboxamide] | 111 to 112
Cc1cc(Oc2c(F)cc(C(F)(F)F)cc2Cl)n[nH]1 [Compound 1-19, 3-(2-chloro-6-fluoro-4-trifluoromethylphenyloxy)-5-methylpyrazole] | 171 to 174
Cc1cc(Oc2ccc([N+](=O)[O-])c(Cl)c2)n[nH]1 [Compound 1-23, 3-(3-chloro-4-nitrophenyloxy)-5-methylpyrazole] | 91 to 93
CCNC(=O)n1nc(Oc2c([N+](=O)[O-])cc([N+](=O)[O-])cc2C(F)(F)F)cc1C | 169 to 171
CNC(=S)n1nc(Oc2ncc(C(F)(F)F)cc2Cl)cc1C | 63 to 65
CCNC(=S)n1nc(Oc2c(F)cc(C(F)(F)F)cc2Cl)cc1C | 114 to 115
CCNC(=O)n1nc(Oc2ccc([N+](=O)[O-])cc2)cc1C [Example 54, N-ethyl-5-methyl-3-(4-nitrophenyloxy)pyrazole-1-carboxamide] | 105 to 107
Cc1cc(Oc2ccc([N+](=O)[O-])cc2)n[nH]1 [Compound 1-47, 5-methyl-3-(4-nitrophenyloxy)pyrazole] | 124 to 125
CCc1cc(Oc2ccc(C(F)(F)F)cc2[N+](=O)[O-])nn1C(=O)NC | 89 to 91
CCCCCCNC(=O)n1nc(Oc2c(Cl)cc(C(F)(F)F)cc2Cl)c(Cl)c1C [Example 246, N-hexyl-4-chloro-3-(2,6-dichloro-4-trifluoromethylphenyloxy)-5-methylpyrazole-1-carboxamide] | 86 to 88
Cc1c(Cl)c(Oc2c(Cl)cc(C(F)(F)F)cc2Cl)nn1C(=O)NC(C)C [Example 249, N-isopropyl-4-chloro-3-(2,6-dichloro-4-trifluoromethylphenyloxy)-5-methylpyrazole-1-carboxamide] | 109 to 111
CCNC(=O)n1nc(Oc2c(F)cc(C(F)(F)F)cc2F)cc1C [Example 124, N-ethyl-3-(2,6-difluoro-4-trifluoromethylphenyloxy)-5-methylpyrazole-1-carboxamide] | 102 to 104
Cc1cc(Oc2c(Cl)cc(C(F)(F)F)cc2Cl)nn1C(N)=O [Example 223, 3-(2,6-dichloro-4-trifluoromethylphenyloxy)-5-methylpyrazole-1-carboxamide] | 152 to 154
Cc1[nH]nc(Oc2c(Cl)cc(C(F)(F)F)cc2Cl)c1Cl [Compound 1-18, 4-chloro-3-(2,6-dichloro-4-trifluoromethylphenyloxy)-5-methylpyrazole] | 156 to 158
CCNC(=O)n1nc(Oc2c(Cl)cc(C(F)(F)F)cc2Cl)cc1-c1ccc(Cl)cc1 [Example 176, N-ethyl-5-(4-chlorophenyl)-3-(2,6-dichloro-4-trifluoromethylphenyloxy)pyrazole-1-carboxamide] | 88 to 89
CCNC(=O)n1nc(Oc2ccc(C#N)cc2C(F)(F)F)cc1C [Example 95, N-ethyl-3-(4-cyano-2-trifluoromethylphenyloxy)-5-methylpyrazole-1-carboxamide] | 103 to 105
CCNC(=O)n1nc(Oc2c(Cl)cc(C(F)(F)F)cc2Cl)cc1CC [Example 163, N-ethyl-3-(2,6-dichloro-4-trifluoromethylphenyloxy)-5-ethylpyrazole-1-carboxamide] | 86 to 89
CCOc1cc(Oc2cc(C)[nH]n2)ccc1[N+](=O)[O-] [Compound 1-6, 3-(3-ethoxy-4-nitrophenyloxy)-5-methylpyrazole] | 123 to 124
Cc1cc(Oc2cccc(C(F)(F)F)c2)nn1C(=O)NCC1CCCO1 (stereo not shown) [Example 199, N-tetrahydrofurfuryl-5-methyl-3-(3-trifluoromethylphenyloxy)pyrazole-1-carboxamide] | 101 to 102
Cc1cc(Oc2ncc(C(F)(F)F)cc2Cl)n[nH]1 [Compound 2-5, 3-(3-chloro-5-trifluoromethylpyridin-2-yloxy)-5-methylpyrazole] | 93 to 95
Cc1cc(Oc2ccc(F)cc2[N+](=O)[O-])n[nH]1 [Compound 1-29, 3-(4-fluoro-2-nitrophenyloxy)-5-methylpyrazole] | 81 to 84
